Assay [1] has as its target NR1/NR2B (Homo sapiens (Human), UniProt Q13224). Briefly: Cell assay: FDSS Ca2+ influx inhibition in HEK293 cells expressing NR1/NR2B.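 Further: Fluo-8 Ca2+ signal read on Hamamatsu FDSS 6000 after glutamate, glycine and Ca2+ challenge following 10 min compound preincubation, end/baseline fluorescence ratio compared with MK801 control.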 The note with it: read-out: NR2B NAM IC50.
Assay [2] deals with NR1/NR2B (Homo sapiens (Human), UniProt Q05586+Q13224). The description is as above. The conditions noted are these: Binned Activity, HEK293 cells expressing NR1/NR2B, Ca2+ influx; binned NR2B NAM IC50.
The mark [3] stands for this setting: HEK293 cells expressing NR1/NR2B, Ca2+ influx.

Where two headings read alike, the source gives them in different places.

Sequence of NR1/NR2B (Homo sapiens (Human), UniProt Q13224) (Q13224 27-1484, other chains not shown): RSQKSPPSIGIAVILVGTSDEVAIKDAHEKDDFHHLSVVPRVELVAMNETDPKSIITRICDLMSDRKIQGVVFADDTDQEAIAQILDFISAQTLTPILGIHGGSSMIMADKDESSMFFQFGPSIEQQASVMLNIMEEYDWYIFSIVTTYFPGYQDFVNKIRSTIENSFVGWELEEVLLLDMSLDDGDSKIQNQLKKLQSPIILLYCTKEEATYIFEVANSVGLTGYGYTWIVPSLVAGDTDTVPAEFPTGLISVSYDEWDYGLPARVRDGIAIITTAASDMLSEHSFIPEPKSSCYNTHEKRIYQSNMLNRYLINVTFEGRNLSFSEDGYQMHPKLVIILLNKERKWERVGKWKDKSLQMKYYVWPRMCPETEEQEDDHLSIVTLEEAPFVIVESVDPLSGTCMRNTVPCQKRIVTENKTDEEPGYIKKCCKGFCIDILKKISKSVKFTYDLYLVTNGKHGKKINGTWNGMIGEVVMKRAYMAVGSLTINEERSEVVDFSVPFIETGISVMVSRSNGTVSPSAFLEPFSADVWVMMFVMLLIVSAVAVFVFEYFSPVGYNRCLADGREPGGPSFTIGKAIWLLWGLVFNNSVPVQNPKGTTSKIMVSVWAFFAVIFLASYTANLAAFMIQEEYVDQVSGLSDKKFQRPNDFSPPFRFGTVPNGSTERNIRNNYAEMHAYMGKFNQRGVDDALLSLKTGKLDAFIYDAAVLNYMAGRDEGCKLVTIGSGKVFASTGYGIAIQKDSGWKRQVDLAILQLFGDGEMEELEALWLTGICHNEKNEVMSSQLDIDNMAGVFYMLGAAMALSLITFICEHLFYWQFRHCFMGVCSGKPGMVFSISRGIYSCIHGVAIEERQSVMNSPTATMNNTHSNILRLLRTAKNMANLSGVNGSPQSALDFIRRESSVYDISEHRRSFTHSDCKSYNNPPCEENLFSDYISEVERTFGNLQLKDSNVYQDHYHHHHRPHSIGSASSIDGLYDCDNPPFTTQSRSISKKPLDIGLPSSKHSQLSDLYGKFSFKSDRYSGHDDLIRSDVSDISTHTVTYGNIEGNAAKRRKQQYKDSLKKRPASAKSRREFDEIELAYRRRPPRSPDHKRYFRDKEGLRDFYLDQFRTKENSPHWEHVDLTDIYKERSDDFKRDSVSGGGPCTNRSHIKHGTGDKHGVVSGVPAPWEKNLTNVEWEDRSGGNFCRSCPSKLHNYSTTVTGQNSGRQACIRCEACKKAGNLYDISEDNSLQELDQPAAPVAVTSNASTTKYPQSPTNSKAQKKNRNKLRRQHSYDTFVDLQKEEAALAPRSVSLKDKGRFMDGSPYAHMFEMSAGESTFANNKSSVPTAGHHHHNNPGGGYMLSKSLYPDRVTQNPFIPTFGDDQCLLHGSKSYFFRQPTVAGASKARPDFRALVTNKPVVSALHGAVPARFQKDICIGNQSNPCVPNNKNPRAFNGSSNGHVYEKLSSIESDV
Sequence of NR1/NR2B (Homo sapiens (Human), UniProt Q05586+Q13224) (Q13224 27-1484, other chains not shown): as above

For orientation: IC50 means the midpoint of a concentration-inhibition curve. Take `CS(=O)(=O)Nc1ccc(C(=O)CN2C[C@@H]3C[C@@](O)(Cc4ccccc4)C[C@@H]3C2)nc1` [Example 235, N-(6-(2-((3aR,5r,6aS)-5-benzyl-5-hydroxyhexahydrocyclo-penta[c]pyrrol-2(1H)-yl)acetyl)pyridin-3-yl)methanesulfonamide]: the IC50 at NR1/NR2B [1] (setting [3]) was 10 µM; against NR1/NR2B [2], more than 10 µM.
As for `O[C@@]1(c2ccc(F)cc2)C[C@H]2CN(c3cccc(C(F)(F)F)n3)C[C@H]2C1` [Example 81, 5-(4-fluorophenyl)-2-[6-(trifluoromethyl)pyridin-2-yl]-octahydrocyclopenta[c] pyrrol-5-ol], the IC50 on NR1/NR2B [1] (setting [3]) is 10 µM; on NR1/NR2B [2] it was more than 10 µM.
In the case of `Cc1ccc(NC(=O)N2C[C@H]3C[C@@H](c4ccccc4)C[C@H]3C2)c(C)c1` [Example 110, N-(2,4-dimethylphenyl)-5-phenyl-octahydrocyclopenta[c] pyrrole-2-carboxamide], the IC50 at NR1/NR2B [1] (setting [3]) is 10 µM; against NR1/NR2B [2], more than 10 µM.
For `COC(=O)c1ccc(NC(=O)N2C[C@@H]3C[C@@](O)(c4ccccc4C)C[C@@H]3C2)cc1` [Example 22, Methyl 4-(5-hydroxy-5-(o-tolyl)octahydrocyclopenta [c]pyrrole-2-carboxamido)benzoate] the same measures were 10 µM and more than 10 µM.
Consider `COc1cccc([C@]2(O)C[C@H]3CN(CC(=O)c4ccccc4)C[C@H]3C2)c1` [Example 59, 2-[5-hydroxy-5-(3-methoxyphenyl)-octahydrocyclopenta[c]pyrrol-2-yl]-1-phenylethan-1-one], for which the half-inhibitory concentration (IC50) is 10 µM at NR1/NR2B [1] and more than 10 µM on NR1/NR2B [2].
For the compound `Cc1ccccc1-c1cccc(C(=O)CN2C[C@@H]3C[C@@](O)(Cc4ccccc4)C[C@@H]3C2)c1` [Example 278, 2-((3aR,5r,6aS)-5-benzyl-5-hydroxyhexahydrocyclo-penta[c]pyrrol-2(1H)-yl)-1-(2′-methyl-[1,1′-biphenyl]-3-yl)ethanone], the figures for the IC50 on NR1/NR2B [1] (setting [3]) and on NR1/NR2B [2] were 10 µM and more than 10 µM, respectively.
In the case of `O=C(CN1C[C@H]2C[C@@H](Cc3ccccc3)C[C@H]2C1)c1ccc(O)cc1` [Example 303, 2-[(3aR,5S,6aS)-5-benzyl-octahydrocyclopenta[c]pyrrol-2-yl]-1-(4-hydroxyphenyl)ethan-1-onefluorophenol], the values for the IC50 at NR1/NR2B [1] (setting [3]) and on NR1/NR2B [2] were 0.0388 µM and less than 0.1 µM, respectively.
Turning to `Cc1ccccc1C[C@]1(O)C[C@H]2CN(CC(=O)c3ccc(O)cc3)C[C@H]2C1` [Example 183, 2-((3aR,5r,6aS)-5-hydroxy-5-(2-methylbenzyl)hexahydro-cyclopenta[c]pyrrol-2(1H)-yl)-1-(4-hydroxyphenyl)ethanone], the IC50 was 0.145 µM on NR1/NR2B [1] (setting [3]) and 0.1 to 1 µM on NR1/NR2B [2].
With `Oc1ccc([C@@H](O)CN2C[C@@H]3C[C@](F)(Cc4ccccc4)C[C@@H]3C2)cc1` [Example 314, 4-((R)-2-((3aR,5S,6aS)-5-benzyl-5-fluoro-hexahydrocyclopen-ta[c]pyrrol-2(1H)-yl)-1-hydroxyethyl)phenol], the concentration for half-maximal inhibition (IC50) is 0.414 µM on NR1/NR2B [1] (setting [3]) and 0.1 to 1 µM on NR1/NR2B [2].
For the compound `COc1ccc(NC(=O)N2C[C@@H]3C[C@@](O)(c4ccc(C#N)cc4)C[C@@H]3C2)cc1` [Example 2, 5-(4-cyanophenyl)-5-hydroxy-N-(4-methoxyphenyl)-octahydrocyclopenta[c] pyrrole-2-carboxamide], the half-inhibitory concentration (IC50) at NR1/NR2B [1] (setting [3]) was 10 µM; against NR1/NR2B [2], more than 10 µM.
Turning to `O=C(CN1C[C@@H]2C[C@@](O)(Cc3ccccc3)C[C@@H]2C1)c1cnc(OCc2ccccc2)cn1` [Example 162, 2-((3aR,5r,6aS)-5-benzyl-5-hydroxyhexahydrocyclo-penta[c]pyrrol-2(1H)-yl)-1-(5-(benzyloxy)pyrazin-2-yl)ethanone], the 50% inhibitory concentration (IC50) is 10 µM on NR1/NR2B [1] (setting [3]) and more than 10 µM against NR1/NR2B [2].
Consider `O=C(CN1C[C@@H]2C[C@@](O)(Cc3ccccc3)C[C@@H]2C1)c1cnc(O)cn1` [Example 187, 2-((3aR,5r,6aS)-5-benzyl-5-hydroxyhexahydrocyclo-penta[c]pyrrol-2(1H)-yl)-1-(5-hydroxypyrazin-2-yl)ethanone], for which the concentration for half-maximal inhibition (IC50) was 10 µM at NR1/NR2B [1] (setting [3]) and more than 10 µM on NR1/NR2B [2].
`Cc1cc(C)cc(C[C@]2(O)C[C@H]3CN(CC(=O)c4ccc(O)cc4)C[C@H]3C2)c1` [Example 212, 2-[(3aR,5R,6aS)-5-[(3,5-dimethylphenyl)methyl]-5-hydroxy-octahydrocyclopenta[c]pyrrol-2-yl]-1-(4-hydroxyphenyl)ethan-1-one]: the IC50 at NR1/NR2B [1] (setting [3]) was 10 µM; on NR1/NR2B [2] it was more than 10 µM.
`Cc1cccc(N2C[C@@H]3C[C@@](O)(c4ccc(F)cc4)C[C@@H]3C2)n1` [Example 87, 5-(4-fluorophenyl)-2-(6-methylpyridin-2-yl)-octahydrocyclopenta[c] pyrrol-5-ol]: the IC50 on NR1/NR2B [1] (setting [3]) is 10 µM; on NR1/NR2B [2], more than 10 µM.
The like results for `COc1ccc(C(=O)CN2C[C@@H]3C[C@@](O)(Cc4ccccc4)C[C@@H]3C2)cc1` [Example 132, 2-((3aR,5r,6aS)-5-benzyl-5-hydroxyhexahydrocyclo-penta[c]pyrrol-2(1H)-yl)-1-(4-methoxyphenyl)ethanone] were, in that order, 10 µM and more than 10 µM.
Take `COc1cccc(C[C@]2(O)C[C@H]3CN(CC(=O)c4ccc(O)cc4)C[C@H]3C2)c1` [Example 194, 2-((3aR,5r,6aS)-5-hydroxy-5-(3-meth-oxybenzyl)hexahydro-cyclopenta[c]pyrrol-2(1H)-yl)-1-(4-hydroxyphenyl)ethanone]: the IC50 on NR1/NR2B [1] (setting [3]) was 0.0981 µM; against NR1/NR2B [2], less than 0.1 µM.
`O=C(CN1C[C@@H]2C[C@@](O)(Cc3c(F)cccc3F)C[C@@H]2C1)c1ccc(O)cn1` [Example 237, 2-[(3aR,5R,6aS)-5-[(2,6-difluorophenyl)methyl]-5-hydroxy-octahydrocyclopenta[c]pyrrol-2-yl]-1-(5-hydroxypyridin-2-yl)ethan-1-one]: the results for the half-inhibitory concentration (IC50) on NR1/NR2B [1] (setting [3]) and at NR1/NR2B [2] were 1.91 µM and 1 to 10 µM, respectively.
The like results for `O=C(CN1C[C@@H]2C[C@@](O)(Cc3ccccc3)C[C@@H]2C1)c1ccc(O)c(F)n1` [Example 190, 2-((3aR,5r,6aS)-5-benzyl-5-hydroxyhexahydrocyclo-penta[c]pyrrol-2(1H)-yl)-1-(6-fluoro-5-hydroxypyridin-2-yl)ethanone] were, in that order, 10 µM and more than 10 µM.
For `Oc1ccc([C@H](O)CN2C[C@@H]3C[C@](F)(Cc4ccccc4)C[C@@H]3C2)cc1` [Example 315, 4-((S)-2-((3aR,5R,6aS)-5-benzyl-5-fluoro-hexahydrocyclopen-ta[c]pyrrol-2(1H)-yl)-1-hydroxyethyl)phenol] the same measures were 0.324 µM and 0.1 to 1 µM.
Take `CO[C@@]1(Cc2ccccc2)C[C@H]2CN(CC(=O)c3ccc(O)c(F)n3)C[C@H]2C1` [Example 197, 2-((3aR,5r,6aS)-5-benzyl-5-methoxyhexahydrocyclo-penta[c]pyrrol-2(1H)-yl)-1-(6-fluoro-5-hydroxypyridin-2-yl)ethanone]: the half-inhibitory concentration (IC50) on NR1/NR2B [1] (setting [3]) is 10 µM; on NR1/NR2B [2], more than 10 µM.
Take `C[C@@H](NC(=O)N1C[C@H]2C[C@@H](c3ccccc3)C[C@H]2C1)c1ccc(Cl)cc1` [Example 113, N-[(1R)-1-(4-chlorophenyl)ethyl]-5-phenyl-octahydrocyclopenta[c] pyrrole-2-carboxamide]: the IC50 was 10 µM at NR1/NR2B [1] (setting [3]) and more than 10 µM on NR1/NR2B [2].
Take `CO[C@@]1(Cc2ccccc2)C[C@H]2CN(CC(=O)c3ccc(O)cc3)C[C@H]2C1` [Example 174, 2-((3aR,5r,6aS)-5-benzyl-5-methoxyhexahydrocyclo-penta[c]pyrrol-2(1H)-yl)-1-(4-hydroxyphenyl)ethanone]: the results for the IC50 on NR1/NR2B [1] (setting [3]) and against NR1/NR2B [2] were 0.0572 µM and less than 0.1 µM, respectively.
For `O=C(Nc1cccc(Cl)c1)N1C[C@@H]2C[C@@](O)(c3ccccc3)C[C@@H]2C1` [Example 4, N-(3-chlorophenyl)-5-hydroxy-5-phenyl-octahydrocyclopenta[c] pyrrole-2-carboxamide] the same measures were 10 µM and more than 10 µM.
`COc1cccc(NC(=O)N2C[C@@H]3C[C@@](O)(c4cccc(OC)c4)C[C@@H]3C2)c1` [Example 18, 5-hydroxy-N,5-bis(3-methoxyphenyl)-octahydrocyclopenta[c] pyrrole-2-carboxamide]: the 50% inhibitory concentration (IC50) at NR1/NR2B [1] (setting [3]) is 10 µM; against NR1/NR2B [2] it was more than 10 µM.
On to `Cc1cccc(-c2ccc(C(=O)CN3C[C@@H]4C[C@@](O)(CCc5ccccc5)C[C@@H]4C3)cc2)c1` [Example 277], for which the IC50 at NR1/NR2B [1] (setting [3]) was 10 µM; on NR1/NR2B [2], more than 10 µM.
The like results for `Oc1ccc([C@@H](O)CN2C[C@@H]3C[C@@](O)(Cc4ccc(F)cc4)C[C@@H]3C2)nc1` [Example 255, (3aR,5S,6aS)-5-(4-fluorobenzyl)-2-((S)-2-hydroxy-2-(5-hydroxypyridin-2-yl)ethyl)octahydrocyclo-penta[c]pyrrol-5-ol] were, in that order, 0.024 µM and less than 0.1 µM.
On to `Oc1ccc([C@@H](O)CN2C[C@@H]3C[C@](O)(Cc4ccccc4)C[C@@H]3C2)cc1` [Example 2291, (3aR,5R,6aS)-5-benzyl-2-((R)-2-hydroxy-2-(4-hydroxyphenyl)ethyl) octahydrocyclopenta [c]pyrrol-5-ol], for which the half-inhibitory concentration (IC50) is 0.332 µM on NR1/NR2B [1] (setting [3]) and 0.1 to 1 µM against NR1/NR2B [2].
For `O=C(Nc1ccc(F)cc1)N1C[C@@H]2C[C@@](O)(c3ccccc3)C[C@@H]2C1` [Example 6] the same measures were 10 µM and more than 10 µM.
Consider `Cc1ccc(NC(=O)N2C[C@@H]3C[C@@](O)(c4ccc(F)cc4)C[C@@H]3C2)cc1` [Example 36, 5-(4-fluorophenyl)-5-hydroxy-N-(4-methylphenyl)-octahydrocyclopenta[c] pyrrole-2-carboxamide], for which the IC50 was 10 µM at NR1/NR2B [1] (setting [3]) and more than 10 µM against NR1/NR2B [2].

Values taken from patent US10052306B2 (LUC THERAPEUTICS, INC., priority 2013, dated 2018).
